# What was measured:
# atrophic cutaneous scar = test: Topical treatment of an atrophic cutaneous scar in a human (case example); type: in vivo; conditions: aqueous solution 0.004% topical once daily
# Protocol: FIG. 1 A. depicts a 6 month old atrophic cutaneous scar secondary to dermatologic surgery present on the abdomen of a person prior to treatment. During the 3 to 4 months prior to starting topical treatment with PGF 2α analog, the scar had not qualitatively changed in structure or appearance. […] The scar was then treated with an aqueous solution of topical travoprost 0.004% which was digitally massaged onto the scar surface once daily for several weeks. FIGS. 1B through J depict the appearance of the same scar at one week intervals during the treatment period.
# synovial fibroblast = conditions: in culture; cited from earlier work
# skin (Sc)fibroblasts = conditions: exogenous administration; mice with a mutated form of α2AP; cited from earlier work
Compound,Langer lines across the previously scarred skin (atrophic cutaneous scar; at 8 weeks),"surrounding skin: keloid formation, atrophy or pigmentation (atrophic cutaneous scar; at all time points)",other adverse reactions (atrophic cutaneous scar; during or after the treatment interval),erythema of the scar (atrophic cutaneous scar; over 9 weeks of treatment),transition of the border between the scar tissue and normal surrounding skin (atrophic cutaneous scar; over 9 weeks of treatment),"fibrosis and thickening of the atrophic areas of the scar (atrophic cutaneous scar; person, abdominal scar, over 9 weeks of treatment)","synovial fibroblast collagen production, cell proliferation and cell migration (synovial fibroblast)",bleomycin-induced collagen production / fibrosis in mutant (Sc)fibroblast strain (skin (Sc)fibroblasts)
CC(C)OC(=O)CCC/C=C\C[C@@H]1[C@@H](/C=C/[C@@H](O)COc2cccc(C(F)(F)F)c2)[C@H](O)C[C@@H]1O [travoprost],normal appearing Langer lines are apparent,"no evidence of keloid formation, atrophy or pigmentation",No other adverse reactions were noted,decrease in erythema,visibly smoother transition of the border between the scar tissue and normal surrounding skin,gradual increase in fibrosis and thickening of the atrophic areas of the scar,,
Prostaglandin F 2α [PGF 2α],,,,,,,stimulated,reversed the attenuation and this resulted in dermal thickening and fibrosis
transforming growth factor β,,,,,,,not,

# From patent publication US10039770B2, “Prostaglandin F2Alpha and analogues thereof for treating atrophic cutaneous scarring” (Galderma S.A., priority 2013, dated 2018)
